What is called EC50 is the concentration that produces a half-maximal response.

This test relates to HEK293 Gal4-LXR tk-luc reporter, luminescence, 24 h. Put plainly: LXR agonists, Gal4 luciferase reporter, dose response, counter-screen for ssDAF-12 agonist project, cell-based, luminescence, HEK293, S. stercoralis campaign (AID 720737).

Molecules are shown by their SMILES. The source made the active and inactive calls.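 How the source made its calls: active means compounds whose fitted concentration for half of maximal LXR reporter activation EC50 is 10 µM or lower; inactive means the rest.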

Turning to `CC(C)(C)C1CCC(=NNC(=S)Nc2cccnc2)CC1` (stereo unspecified), the EC50 was > 67.5 µM (inactive).

Source of the values: PubChem BioAssay AID720737 (The Scripps Research Institute Molecular Screening Center, 2013).
